Laboratory results from patent US12697326B2, “Methods of treating hepatic encephalopathy” (SALIX PHARMACEUTICALS, INC., priority 2008, dated 2026).

Tested on: breakthrough HE episode in subjects with hepatic encephalopathy (HE)
Assay: Time to first breakthrough (overt) HE episode, first study, rifaximin vs placebo
Type: in vivo, human
Settings: for Cumulative number of events / Number of events / Probability of no breakthrough overt HE (Kaplan-Meier event-free estimate): ITT, first breakthrough overt HE
Excerpt: An increase in the Conn score of greater than or equal to grade 2 was considered as a breakthrough HE episode.
An efficacy endpoint was the time to first breakthrough overt HE episode. A breakthrough overt HE episode was defined as an increase of Conn score to Grade ≥2 (e.g., 0) or 1 to ≥2) or an increase in Conn and asterixis score of 1 grade each for those subjects who entered the study with a Conn score of 0. Time to breakthrough overt HE episode was the duration from time of first dose of study drug to the first breakthrough overt HE episode. […] Subjects who terminated early for reasons other than breakthrough overt HE were contacted at 6 months from randomization to determine if subjects had experienced a breakthrough overt HE episode or other outcome (e.g., mortality status); and, if the subject had no breakthrough overt HE event prior to contact, he/she was censored at the time of contact. […] Subjects in the study had ≥2 episodes of overt HE equivalent to Conn score ≥2 within 6 months prior to screening (i.e., subjects had documented recurrent, overt HE). At the baseline assessment, subjects were in remission with a Conn score of 0 or 1. A breakthrough overt HE episode, as defined above, was a marked deterioration in neurological function.
Presented herein are the results of the first study and second study. […] The primary efficacy endpoint was the time to breakthrough overt HE. Breakthrough overt HE was defined as an increase of Conn score to Grade ≥2 (e.g., 0 or 1 to ≥2) or an increase in Conn and asterixis score of 1 grade each for those subjects who entered the study with a Conn score of 0. Subjects discontinued from the study at the time of breakthrough overt HE episode. After participation in the first study, subjects had the option to enroll in the open-label, treatment-extension study (the second study).
FIG. 1 illustrates Kaplan-Meier estimates of time to first breakthrough overt HE episode by treatment group in the ITT population. Table 18 presents Kaplan-Meier estimates of the proportions of subjects who experienced breakthrough overt HE over the course of the Treatment Period and results of statistical analyses. […] Subjects who terminated early for reasons other than breakthrough overt HE (eg, liver transplant, AE, subject request) were contacted at 6 months from date of randomization to determine if subjects had experienced a breakthrough overt HE episode or other outcome (e.g., mortality status). Subjects without breakthrough overt HE were censored at the time of contact or death, whichever was earlier.

[1] = breakthrough HE episode by prior lactulose use; 550 mg BID; N = 123; Days [0-28)
[2] = breakthrough HE episode by prior lactulose use; 550 mg BID; N = 123; Days [28-56)
[3] = breakthrough HE episode by prior lactulose use; 550 mg BID; N = 123; Days [56-84)
[4] = breakthrough HE episode by prior lactulose use; 550 mg BID; N = 123; Days [84-140)
[5] = breakthrough HE episode by prior lactulose use; 550 mg BID; N = 123; Days [140-168)
[6] = breakthrough HE episode by prior lactulose use, 550 mg BID, N = 127, Days >=168
[7] = breakthrough HE episode by prior lactulose use; 550 mg BID; N = 127; Days [0-28)
[8] = breakthrough HE episode by prior lactulose use, 550 mg BID, N = 127, Days [28-56]
[9] = breakthrough HE episode by prior lactulose use, 550 mg BID, N = 127, Days [56-84]
[10] = breakthrough HE episode by prior lactulose use; 550 mg BID; N = 127; Days [84-140)
[11] = breakthrough HE episode by prior lactulose use; 550 mg BID; N = 127; Days [140-168)
[12] = breakthrough HE episode, 550 mg BID, N = 140, Days >=168
[13] = breakthrough HE episode; 550 mg BID; N = 140; Days [0-28)
[14] = breakthrough HE episode; 550 mg BID; N = 140; Days [28-56)
[15] = breakthrough HE episode; 550 mg BID; N = 140; Days [56-84)
[16] = breakthrough HE episode; 550 mg BID; N = 140; Days [84-140)
[17] = breakthrough HE episode; 550 mg BID; N = 140; Days [140-168)
[18] = first study, N = 140, treatment interval 0 to <28 days
[19] = first study, N = 140, treatment interval 28 to 56 days
[20] = first study, N = 140, treatment interval 56 to <84 days
[21] = first study, N = 140, treatment interval 84 to <149 days
[22] = first study, N = 140, treatment interval 140 to <168 days
[23] = first study, N = 140, treatment interval ≥168 days

CO[C@H]1/C=C/O[C@@]2(C)Oc3c(C)c(O)c4c(O)c(c5c(nc6cc(C)ccn65)c4c3C2=O)NC(=O)/C(C)=C\C=C\[C@H](C)[C@H](O)[C@@H](C)[C@@H](O)[C@@H](C)[C@H](OC(C)=O)[C@@H]1C [Rifaximin]
Occurrences of Events [1]: 12 | Survival [1]: 1.0000 | Cumulative Occurrences of Events [2]: 16 | Occurrences of Events [2]: 4 | Survival [2]: 0.9024 | Cumulative Occurrences of Events [3]: 21 | Occurrences of Events [3]: 5 | Survival [3]: 0.8696 | Cumulative Occurrences of Events [4]: 28 | Occurrences of Events [4]: 7 | Survival [4]: 0.8278 | Cumulative Occurrences of Events [5]: 29 | Occurrences of Events [5]: 1 | Survival [5]: 0.7678 | Cumulative Occurrences of Events [6]: 29 | Occurrences of Events [6]: 0 | Survival [6]: 0.7666 | Cumulative Occurrences of Events [7]: 12 | Occurrences of Events [7]: 12 | Survival [7]: 1.0000 | Cumulative Occurrences of Events [8]: 16 | Occurrences of Events [8]: 4 | Survival [8]: 0.9055 | Cumulative Occurrences of Events [9]: 22 | Occurrences of Events [9]: 6 | Survival [9]: 0.8737 | Cumulative Occurrences of Events [10]: 28 | Occurrences of Events [10]: 6 | Survival [10]: 0.8252 | Cumulative Occurrences of Events [11]: 25 | Occurrences of Events [11]: 1 | Survival [11]: 0.7754 | Cumulative Occurrences of Events [12]: 31 | Occurrences of Events [12]: 0 | Survival [12]: 0.7740 | Cumulative Occurrences of Events [13]: 13 | Occurrences of Events [13]: 13 | Survival [13]: 1.0000 | Cumulative Occurrences of Events [14]: 17 | Occurrences of Events [14]: 4 | Survival [14]: 0.9071 | Cumulative Occurrences of Events [15]: 23 | Occurrences of Events [15]: 6 | Survival [15]: 0.8783 | Cumulative Occurrences of Events [16]: 30 | Occurrences of Events [16]: 7 | Survival [16]: 0.8344 | Cumulative Occurrences of Events [17]: 31 | Occurrences of Events [17]: 1 | Survival [17]: 0.7820 | reduction, compared with placebo, in the risk of a breakthrough overt HE episode after adjusting for prognostic factors (first study): 60% | Cumulative number of events [18]: 13 | Number of events [18]: 13 | Probability of no breakthrough overt HE (Kaplan-Meier event-free estimate) [18]: 1.0000 | Cumulative number of events [19]: 17 | Number of events [19]: 4 | Probability of no breakthrough overt HE (Kaplan-Meier event-free estimate) [19]: 0.9071 | Cumulative number of events [20]: 23 | Number of events [20]: 6 | Probability of no breakthrough overt HE (Kaplan-Meier event-free estimate) [20]: 0.8783 | Cumulative number of events [21]: 30 | Number of events [21]: 7 | Probability of no breakthrough overt HE (Kaplan-Meier event-free estimate) [21]: 0.8344 | Cumulative number of events [22]: 31 | Number of events [22]: 1 | Probability of no breakthrough overt HE (Kaplan-Meier event-free estimate) [22]: 0.7820 | Cumulative number of events [23]: 31 | Number of events [23]: 0 | Probability of no breakthrough overt HE (Kaplan-Meier event-free estimate) [23]: 0.7740 | proportion of subjects with breakthrough overt HE (first study, rifaximin group): 22% | subjects who experienced breakthrough overt HE episodes (of 140) (first study, rifaximin group, 6-month period, up to Day 170): 31 | time to breakthrough HE event vs placebo (FIG. 2, Kaplan Meier) (in vivo): increased time to breakthrough HE events
